Assay results from paper PMC11356571, “The Comparative Metabolism of a Novel Hepatocellular Carcinoma Therapeutic Agent, 2,3-Diamino-N-(4-(benzo[d]thiazol-2-yl)phenyl)propanamide, in Human and Animal Hepatocytes” (Metabolites, 2024).

Experiments:
Assay type in all cases: in vitro ADME
[1] = Metabolic stability in dog hepatocytes; conditions: cryopreserved hepatocytes
Protocol: (§1) Cryopreserved hepatocytes were carefully thawed in a 37 °C water bath for approximately 1 min, and transferred to a tube containing pre-warmed thawing medium. The supernatants were removed and the pellets were resuspended in KHB at a final cell density of 1 × 10^6 cells/mL, based on hemocytometer counting using trypan blue exclusion. A ETN101 solution was prepared by dissolving ETN101 in water at 4 mM and diluted by KHB at the concentration of 4 μM of ETN101. Sixty microliters each of hepatocyte suspensions and 4 μM of ETN101 were added in a 96-well plate and incubated for 0, 5, 15, 30, and 45 min at 37 °C in a CO2 incubator. All incubations were conducted in triplicates. Reactions were terminated by the addition of 120 μL of ice-cold acetonitrile and followed by vortex mixing. After centrifugation at 13,000 rpm for 8 min at 4 °C, 5 μL of internal standard (IS, camptothecin in acetonitrile at 780 ng/mL) was added to 60 μL of supernatant. A 2 μL aliquot was injected into the LC-MS/MS system. The reliability of the analysis was confirmed by incorporating three different levels of quality control samples at the beginning and end of each analytical batch. The disappearance rate (k) of ETN101 was calculated by determined peak area ratio of ETN101 to IS over incubation period. Subsequently, half-life (t1/2), intrinsic clearance (Clint), and intrinsic hepatic clearance (Clint,hep) of ETN101 in human and animal hepatocytes were calculated using the following equation [34]: t1/2(min)=ln2/−k(elimination slope) ClintμL/min/10^6 cells=ln2/t1/2×μL incubation/hepatocytes (10^6 cells) Clint,hepmL/min/kg=Clint/1000×A×10^6 cells/g liver×B g liver/kg body weight […]
(§2) For the metabolic stability assay, an LC-MS/MS system was employed, consisting of an Agilent 1260 series HPLC system (Agilent Technologies Inc., Santa Clara, CA, USA) coupled to an API 4000 mass spectrometer (AB SCIEX, Concord, Vaughan, ON, Canada) equipped with a turbo electrospray interface. […] ETN101 and IS were detected using multiple reaction monitoring (MRM) mode under positive electrospray ionization (ESI). […]

[2] = Metabolic stability in monkey hepatocytes; conditions: cryopreserved hepatocytes
Protocol: as §1, §2

[3] = tested on: NAT1 in human liver cytosol; test: Human liver cytosol incubation with NAT1 inhibitor caffeic acid; conditions: 30 min at 37 °C, M1 1 μM
Protocol: For the chemical inhibition assay, human liver cytosol was prepared in 0.05 M potassium phosphate buffer at a concentration of 1 mg/mL prior to use. A 1 μL of M1 (final concentration: 1 μM) solution was spiked in 223 μL of human liver cytosol preparations. One microliter each of caffeic acid and 1-aminobenzotriazole were added and incubated as NAT1 and NAT2 inhibitors, respectively. The final concentrations of the NAT inhibitors were 0, 100, and 1000 μM in each incubate. After 5 min of pre-warming of the incubates at 37 °C, the metabolic reaction was initiated by adding 25 μL of acetyl-CoA regenerating system to the incubates. The samples were incubated in triplicate for 0 min or 30 min at 37 °C. The reaction was stopped by adding 250 μL of ice-cold acetonitrile containing the IS (camptothecin, 500 ng/mL) and vortex-mixing. Following centrifugation at 13,000 rpm for 5 min at 4 °C, a 2 μL aliquot of the supernatant was injected into the LC-MS/MS system. The percentage of remaining M1 and the formation of M2 were evaluated to determine the involvement of the NAT isozyme in N-acetylation of M1.
For enzyme characterization, an Agilent 6460 triple quadrupole mass spectrometer coupled with a 1260 HPLC system (Agilent Technologies, Santa Clara, CA, USA) and a Kinetex Halo® C18 column (2.7 μm, 2.1 × 50 mm, Advanced Material Technology, Wilmington, DE, USA) were used for chromatographic separation. The mobile phases comprised 0.1% (v/v) formic acid in water (mobile phase A) and 0.1% formic acid (v/v) in acetonitrile (mobile phase B). The mobile phase flowed at a rate of 0.3 mL/min, and the gradient elution program proceeded as follows: starting with 10% B for 0.5 min, a linear increase to 90% B for 0.2 min, maintaining 90% B for 1.5 min, and then returning to initial conditions for 0.2 min. Subsequently, the column was reconditioned using 10% B for 2.6 min. The column and auto-sampler were maintained at 40 °C and 4 °C, respectively. ETN101, M1, and M2 were detected via MRM using ESI in the positive mode. […]

Structure (SMILES): NCC(N)C(=O)Nc1ccc(-c2nc3ccccc3s2)cc1 (stereo not drawn) [ETN101, 2,3-diamino-N-(4-(benzo[d]thiazol-2-yl)phenyl)propanamide]
- half-life at 2 µM ([1]; 45 min incubation at 37 °C): 1.88 h
- hepatocyte CLint at 2 µM ([1]; 45 min incubation at 37 °C): 12.3 µL/min/1e6 cells
- CLint scaled at 2 µM ([1]; scaled from Clint): 84.6 mL/min/kg
- half-life at 2 µM ([2]; 45 min incubation at 37 °C): 1.22 h
- hepatocyte CLint at 2 µM ([2]; 45 min incubation at 37 °C): 19 µL/min/1e6 cells
- CLint scaled at 2 µM ([2]; scaled from Clint): 45.7 mL/min/kg

Structure (SMILES): Nc1ccc(-c2nc3ccccc3s2)cc1 [M1, 2-(4-aminophenyl)benzothiazole]
- Percentage remaining of M1 ([3]; caffeic acid 0 μM): 87.2%
- Percentage remaining of M1 ([3]; caffeic acid 100 μM): 89.6%
- Percentage remaining of M1 ([3]; caffeic acid 1000 μM): 94.4%
